What was measured:
Test in all cases: fitness (endpoint OD595 vs no drug) (fraction); higher = more growth
B. subtilis 168 = tested on: B. subtilis 168
In short: (§1)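 Fitness expresses the optical density reached at the stationary-phase transition as a fraction of the robust mean of no-drug control wells. It is capped at 1. Measurements were OD595 every 30 min for 14 h at 37 °C after inoculation of 384-well plates at OD595 0.01 (30 µl, or 55 µl for S. pneumoniae), minus the first reading.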

S. aureus Newman = tested on: S. aureus Newman
In short: as §1

S. pneumoniae D39V = tested on: S. pneumoniae D39V
In short: as §1
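Further: OD595 on entry to stationary phase over no-drug wells; at most 1.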

CC[C@H]1OC(=O)[C@H](C)[C@@H](O[C@H]2C[C@@](C)(OC)[C@@H](O)[C@H](C)O2)[C@H](C)[C@@H](O[C@@H]2O[C@H](C)C[C@H](N(C)C)[C@H]2O)[C@](C)(O)C[C@@H](C)CN(C)[C@H](C)[C@@H](O)[C@]1(C)O [Azithromycin] + O=C(O)[C@H]1/C(=C/CO)O[C@@H]2CC(=O)N21 [Clavulanic acid]
fitness, B. subtilis 168
Details	partner 1.5 µg/mL	partner 3 µg/mL	partner 6 µg/mL
first compound 0.25 µg/mL	0.939	0.911	0.793
first compound 0.5 µg/mL	0.805	0.788	0.727

fitness, one replicate
Details	partner 0.03125 µg/mL	partner 0.0625 µg/mL	partner 0.125 µg/mL	partner 1.5 µg/mL	partner 3 µg/mL	partner 6 µg/mL
B. subtilis 168, first compound 2 µg/mL	–	–	–	0.0793	0.054	0.0121
S. aureus Newman, first compound 0.125 µg/mL	0.962	0.973	0.92	–	–	–
S. aureus Newman, first compound 0.25 µg/mL	0.902	0.998	0.893	–	–	–
S. aureus Newman, first compound 0.5 µg/mL	0.811	0.799	0.834	–	–	–

CC1=C(C(=O)O)N2C(=O)[C@@H](NC(=O)[C@H](N)c3ccccc3)[C@H]2SC1 [Cephalexin] + CO[C@@]12[C@H](COC(N)=O)C3=C(C(=O)C(C)=C(N)C3=O)N1C[C@@H]1N[C@@H]12 [Mitomycin C]
fitness
Details	first compound 0.25 µg/mL	first compound 0.5 µg/mL	first compound 1 µg/mL	first compound 2 µg/mL	first compound 4 µg/mL
S. aureus Newman, partner 0.0156 µg/mL	0.804	0.761	0.891	–	–
S. aureus Newman, partner 0.0312 µg/mL	0.732	0.724	0.705	–	–
S. aureus Newman, partner 0.0625 µg/mL	0.614	0.577	0.655	–	–
S. pneumoniae D39V, partner 0.001075 µg/mL	–	–	0.662	0.188	0.0487
S. pneumoniae D39V, partner 0.00215 µg/mL	–	–	0.639	0.146	0.0215
S. pneumoniae D39V, partner 0.0043 µg/mL	–	–	0.604	0.173	0.05

fitness, S. pneumoniae D39V, one replicate
Details	first compound 0.125 µg/mL	first compound 0.25 µg/mL	first compound 0.5 µg/mL
partner 0.002 µg/mL	0.806	0.757	0.732
partner 0.004 µg/mL	0.761	0.723	0.686
partner 0.008 µg/mL	0.607	0.615	0.608

O=C(O)[C@H]1/C(=C/CO)O[C@@H]2CC(=O)N21 [Clavulanic acid] + CC1=C(C(=O)O)N2C(=O)[C@@H](NC(=O)[C@H](N)c3ccccc3)[C@H]2SC1 [Cephalexin]
Details	fitness
B. subtilis 168, first compound 1.5 µg/mL, partner 0.125 µg/mL	0.904
B. subtilis 168, first compound 1.5 µg/mL, partner 0.25 µg/mL	0.927
B. subtilis 168, first compound 1.5 µg/mL, partner 0.5 µg/mL	0.889
B. subtilis 168, first compound 3 µg/mL, partner 0.125 µg/mL	0.878
B. subtilis 168, first compound 3 µg/mL, partner 0.25 µg/mL	0.818
B. subtilis 168, first compound 3 µg/mL, partner 0.5 µg/mL	0.793
B. subtilis 168, first compound 6 µg/mL, partner 0.125 µg/mL	0.772
B. subtilis 168, first compound 6 µg/mL, partner 0.25 µg/mL	0.76
B. subtilis 168, first compound 6 µg/mL, partner 0.5 µg/mL	0.723
S. pneumoniae D39V, first compound 0.5 µg/mL, partner 2 µg/mL	0.0193
S. pneumoniae D39V, first compound 0.5 µg/mL, partner 4 µg/mL	0.0187
S. pneumoniae D39V, first compound 1 µg/mL, partner 2 µg/mL	0.171
S. pneumoniae D39V, first compound 1 µg/mL, partner 4 µg/mL	0.203
S. pneumoniae D39V, first compound 2 µg/mL, partner 1 µg/mL	0.104
S. pneumoniae D39V, first compound 2 µg/mL, partner 2 µg/mL	0.0309
S. pneumoniae D39V, first compound 2 µg/mL, partner 4 µg/mL	0.045

one replicate
Details	fitness
B. subtilis 168, first compound 1.5 µg/mL, partner 1 µg/mL	0.929
B. subtilis 168, first compound 3 µg/mL, partner 1 µg/mL	0.848
B. subtilis 168, first compound 6 µg/mL, partner 1 µg/mL	0.867
S. aureus Newman, first compound 0.03125 µg/mL, partner 0.5 µg/mL	≥ 1
S. aureus Newman, first compound 0.03125 µg/mL, partner 1 µg/mL	≥ 1
S. aureus Newman, first compound 0.03125 µg/mL, partner 2 µg/mL	≥ 1
S. aureus Newman, first compound 0.0625 µg/mL, partner 0.5 µg/mL	0.958
S. aureus Newman, first compound 0.0625 µg/mL, partner 1 µg/mL	0.986
S. aureus Newman, first compound 0.0625 µg/mL, partner 2 µg/mL	≥ 1
S. aureus Newman, first compound 0.125 µg/mL, partner 0.5 µg/mL	0.897
S. aureus Newman, first compound 0.125 µg/mL, partner 1 µg/mL	0.913
S. aureus Newman, first compound 0.125 µg/mL, partner 2 µg/mL	0.919
S. pneumoniae D39V, first compound 0.5 µg/mL, partner 0.125 µg/mL	0.945
S. pneumoniae D39V, first compound 0.5 µg/mL, partner 0.25 µg/mL	0.957
S. pneumoniae D39V, first compound 0.5 µg/mL, partner 0.5 µg/mL	0.941
S. pneumoniae D39V, first compound 1 µg/mL, partner 0.125 µg/mL	0.881
S. pneumoniae D39V, first compound 1 µg/mL, partner 0.25 µg/mL	0.903
S. pneumoniae D39V, first compound 1 µg/mL, partner 0.5 µg/mL	0.944
S. pneumoniae D39V, first compound 2 µg/mL, partner 0.125 µg/mL	0.772
S. pneumoniae D39V, first compound 2 µg/mL, partner 0.25 µg/mL	0.789
S. pneumoniae D39V, first compound 2 µg/mL, partner 0.5 µg/mL	0.765

O=C(O)[C@H]1/C(=C/CO)O[C@@H]2CC(=O)N21 [Clavulanic acid] + CC1=C\[C@@H](O)CC(=O)Cc2nc(co2)C(=O)N2CCC=C2C(=O)O[C@H](C(C)C)[C@H](C)/C=C/C(=O)NC\C=C\1 [Virginiamycin M1]
fitness
Details	first compound 0.5 µg/mL	first compound 1 µg/mL	first compound 1.5 µg/mL	first compound 2 µg/mL	first compound 3 µg/mL	first compound 6 µg/mL
B. subtilis 168, partner 0.0625 µg/mL	–	–	0.935	–	0.877	0.809
B. subtilis 168, partner 0.125 µg/mL	–	–	0.917	–	0.895	0.7
B. subtilis 168, partner 0.25 µg/mL	–	–	0.927	–	0.841	0.822
S. pneumoniae D39V, partner 0.5 µg/mL	0.991	0.935	–	0.918	–	–
S. pneumoniae D39V, partner 1 µg/mL	≥ 1	0.958	–	0.867	–	–
S. pneumoniae D39V, partner 2 µg/mL	0.957	0.904	–	0.796	–	–

fitness, one replicate
Details	first compound 0.03125 µg/mL	first compound 0.0625 µg/mL	first compound 0.125 µg/mL	first compound 0.5 µg/mL	first compound 1 µg/mL	first compound 2 µg/mL
S. aureus Newman, partner 0.0625 µg/mL	0.925	0.984	0.908	–	–	–
S. aureus Newman, partner 0.125 µg/mL	0.917	0.977	0.949	–	–	–
S. aureus Newman, partner 0.25 µg/mL	0.971	≥ 1	0.975	–	–	–
S. pneumoniae D39V, partner 0.15 µg/mL	–	–	–	≥ 1	0.929	0.868
S. pneumoniae D39V, partner 0.3 µg/mL	–	–	–	0.875	0.87	0.802

O=C(O)[C@H]1/C(=C/CO)O[C@@H]2CC(=O)N21 [Clavulanic acid] + CC(C1CCC(C(O1)OC2C(CC(C(C2O)OC3C(C(C(CO3)(C)O)NC)O)N)N)N)NC [Gentamicin]
main component drawn
Details	fitness
B. subtilis 168, first compound 1.5 µg/mL, partner 0.0625 µg/mL	0.884
B. subtilis 168, first compound 3 µg/mL, partner 0.0625 µg/mL	0.859
B. subtilis 168, first compound 6 µg/mL, partner 0.0625 µg/mL	0.737
B. subtilis 168, first compound 6 µg/mL, partner 0.25 µg/mL	0.118
S. pneumoniae D39V, first compound 0.5 µg/mL, partner 2 µg/mL	0.96
S. pneumoniae D39V, first compound 0.5 µg/mL, partner 4 µg/mL	0.955
S. pneumoniae D39V, first compound 0.5 µg/mL, partner 8 µg/mL	0.932
S. pneumoniae D39V, first compound 1 µg/mL, partner 2 µg/mL	0.902
S. pneumoniae D39V, first compound 1 µg/mL, partner 4 µg/mL	0.896
S. pneumoniae D39V, first compound 1 µg/mL, partner 8 µg/mL	0.885
S. pneumoniae D39V, first compound 2 µg/mL, partner 2 µg/mL	0.795
S. pneumoniae D39V, first compound 2 µg/mL, partner 4 µg/mL	0.8
S. pneumoniae D39V, first compound 2 µg/mL, partner 8 µg/mL	0.787

fitness, S. aureus Newman, one replicate, main component drawn
Details	first compound 0.03125 µg/mL	first compound 0.0625 µg/mL	first compound 0.125 µg/mL
partner 1 µg/mL	0.92	0.947	0.872
partner 2 µg/mL	≥ 1	0.893	0.835
partner 4 µg/mL	0.768	0.566	0.388

O=C(O)[C@H]1/C(=C/CO)O[C@@H]2CC(=O)N21 [Clavulanic acid] + CCC[C@@H]1C[C@@H](C(=O)N[C@@H]([C@H]2O[C@H](SC)[C@H](O)[C@@H](O)[C@H]2O)[C@H](C)Cl)N(C)C1 [Clindamycin]
fitness, one replicate
Details	first compound 0.03125 µg/mL	first compound 0.0625 µg/mL	first compound 0.125 µg/mL	first compound 1.5 µg/mL	first compound 3 µg/mL	first compound 6 µg/mL
B. subtilis 168, partner 0.0039 µg/mL	–	–	–	0.957	0.974	0.931
B. subtilis 168, partner 0.0078 µg/mL	–	–	–	0.842	0.826	0.791
B. subtilis 168, partner 0.0156 µg/mL	–	–	–	0.836	0.763	0.739
S. aureus Newman, partner 0.0312 µg/mL	0.863	0.889	0.785	–	–	–
S. aureus Newman, partner 0.0625 µg/mL	0.544	0.518	0.402	–	–	–
S. aureus Newman, partner 0.125 µg/mL	0.38	0.375	0.282	–	–	–

fitness
Details	partner 0.0125 µg/mL	partner 0.015 µg/mL	partner 0.025 µg/mL	partner 0.03 µg/mL	partner 0.05 µg/mL	partner 0.06 µg/mL	partner 0.0625 µg/mL	partner 0.125 µg/mL	partner 0.25 µg/mL
B. subtilis 168, first compound 1.5 µg/mL	–	–	–	–	–	–	0.609	0.322	0.308
B. subtilis 168, first compound 3 µg/mL	–	–	–	–	–	–	0.404	0.313	0.26
B. subtilis 168, first compound 6 µg/mL	–	–	–	–	–	–	0.398	0.24	0.217
S. pneumoniae D39V, first compound 0.5 µg/mL	0.779	0.789	0.511	0.516	0.134	0.305	–	–	–
S. pneumoniae D39V, first compound 1 µg/mL	0.749	0.78	0.485	0.567	0.116	0.417	–	–	–
S. pneumoniae D39V, first compound 2 µg/mL	0.683	0.566	0.407	0.399	0.101	0.245	–	–	–
